PubChem BioAssay (NCI)
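Assay format: 96-well plates, 48-hour exposure. GI50: concentration for 50% inhibition of growth. The concentration for full growth arrest is given as TGI.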

What was measured:
Experiment in all cases: NCI-60 cell line screen, 48 h
OVCAR-3 ovarian = tested on: OVCAR-3 ovarian
OVCAR-4 ovarian = tested on: OVCAR-4 ovarian
HT29 colon = tested on: HT29 colon
MALME-3M melanoma = tested on: MALME-3M melanoma
DU-145 prostate = tested on: DU-145 prostate
SF-539 CNS = tested on: SF-539 CNS
UO-31 renal = tested on: UO-31 renal
SK-MEL-5 melanoma = tested on: SK-MEL-5 melanoma
M14 melanoma = tested on: M14 melanoma
HL-60(TB) leukemia = tested on: HL-60(TB) leukemia

Row | SMILES | GI50 (OVCAR-3 ovarian) [µM] | TGI (OVCAR-3 ovarian) [µM] | GI50 (OVCAR-4 ovarian) [µM] | TGI (OVCAR-4 ovarian) [µM] | GI50 (HT29 colon) [µM] | TGI (HT29 colon) [µM] | GI50 (MALME-3M melanoma) [µM] | TGI (MALME-3M melanoma) [µM] | GI50 (DU-145 prostate) [µM] | TGI (DU-145 prostate) [µM] | GI50 (SF-539 CNS) [µM] | TGI (SF-539 CNS) [µM] | GI50 (UO-31 renal) [µM] | TGI (UO-31 renal) [µM] | GI50 (SK-MEL-5 melanoma) [µM] | TGI (SK-MEL-5 melanoma) [µM] | GI50 (M14 melanoma) [µM] | TGI (M14 melanoma) [µM] | TGI (HL-60(TB) leukemia) [µM] | GI50 (HL-60(TB) leukemia) [µM]
1 | COc1ccc(-c2nnc(Nc3nc(O)c(C4=c5cc(F)ccc5=NC4=O)s3)o2)cc1 | 14.8 | 42.3 | 39.7 | > 100 | 40.5 | > 100 | 34.5 | > 100 | 46.9 | > 100 | 80.9 | > 100 | 37.9 | > 100 | 28.7 | > 100 | – | – | – | –
2 | Oc1ccccc1C=Nc1ccccc1N=Cc1ccccc1O.[Cu+2] | 3.35 | 14.4 | 5.79 | 19 | 13.7 | 32 | 6.52 | 21.2 | 5.13 | 18.5 | 11.8 | 27.7 | 3 | 15.6 | 1.66 | 3.46 | 4.33 | 16.4 | – | –
3 | CCN(CC)CCC(=O)/C=C/c1ccc(C)cc1 | – | 31.1 | – | 32.7 | – | 33 | – | 34 | – | – | – | 19.1 | – | 29.8 | – | 30.2 | – | 26.8 | 33.6 | –
4 | COc1ccc(C(=O)OC2C(OC3C(O)COC(O[C@H]4C[C@H]5[C@@H]6CC=C7C[C@@H](O)CC[C@]7(C)[C@H]6CC[C@]5(C)[C@H]4[C@H](C)C(=O)CCC(C)C)C3OC(C)=O)OCC(O)C2O)cc1 (some centres not stated) | 0.0533 | 6.88 | 0.00892 | 19.6 | < 0.003 | 5.91 | < 0.003 | 0.129 | < 0.003 | 24.3 | < 0.003 | < 0.003 | < 0.003 | 0.0056 | < 0.003 | 0.0204 | – | – | – | –
5 | Cc1ccc(S(=O)(=O)SCc2ccccc2)cc1 | – | 45.5 | – | 31.4 | – | 47.1 | – | 81.5 | – | – | – | 45.7 | – | > 100 | – | 54.5 | – | 39.7 | 5.76 | –
6 | O=C(COc1ccc(-c2nc3cc(Cl)c(Cl)cc3[nH]2)cc1)N=Nc1c(O)[nH]c2ccccc12 | 2.7 | > 100 | – | – | 1.14 | > 100 | – | – | 1.51 | > 100 | 2.65 | 24.2 | > 100 | > 100 | – | – | 4.17 | > 100 | > 100 | > 100
7 | Oc1c2c(c(O)c3ccccc13)C1(N=N2)c2ccccc2Oc2ccccc21 | – | 10.8 | – | – | – | 30.2 | – | 9.28 | – | 37 | – | 20.2 | – | 23.3 | – | 27.2 | – | 26.1 | 62.1 | –
8 | COc1cc(NC(C)CCCN)c2ncccc2c1Sc1ccc(Cl)cc1 (configuration not stated) | 1.77 | 3.28 | 1.72 | 3.1 | 1.9 | 3.5 | – | – | 1.85 | 3.32 | – | – | 1.59 | 3.19 | 1.72 | 3.09 | 1.77 | 3.34 | 3.88 | 2.05
